± gives the expanded uncertainty stated by the source.
Key:
[1] = Molar enthalpy of transition or fusion

SMILES	Triple point temperature (Crystal 1) [K]	Triple point temperature (Crystal 2) [K]	Molar enthalpy of transition or fusion ([1]; Crystal 1) [kcal/mol]	Molar enthalpy of transition or fusion ([1]; Crystal 2) [kcal/mol]	Triple point temperature (Crystal) [K]	Glass transition temperature [°C]	Triple point temperature (Crystal 3) [K]	Molar enthalpy of transition or fusion ([1]; Crystal 3) [kcal/mol]	Glass transition temperature (Adiabatic calorimetry) [°C]
CC(C)(C)CO [2,2-dimethyl-1-propanol]	328.2 ± 0.4	233.3 ± 1	0.693 ± 0.0478	0.98 ± 0.0478	–	–	–	–	–
CCC(O)CC [3-pentanol]	–	–	0.397 ± 0.0478	–	203.2 ± 0.4	-143 ± 5	–	–	–
CCC(C)(C)O [2-methylbutan-2-ol]	264.7 ± 0.4	215 ± 1	0.478 ± 0.0478	–	–	–	145.8 ± 0.4	0.215 ± 0.0239	–
CCC(C)CO (stereo not drawn) [2-methyl-1-butanol]	–	–	–	–	–	–	–	–	-155 ± 5

Reference: the NIST ThermoML archive (doi:10.1021/je060411g)
